For nine compounds, inhibition results are on record in patent EP4786487A1, “PEPTIDE” (Peptidream Inc, priority 2023, dated 2025).

Assay [1] has as its target T1, Myostatin (Homo sapiens, UniProt O14793).
T1 construct: active myostatin (also called mature myostatin) is a homodimer consisting of two C-terminal growth factor domains; purchased R&D systems 788-G8/CF
T1 sequence (O14793 267-375): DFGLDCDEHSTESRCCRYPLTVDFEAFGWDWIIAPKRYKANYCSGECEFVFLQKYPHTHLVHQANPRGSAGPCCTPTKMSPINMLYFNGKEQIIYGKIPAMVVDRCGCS
Briefly: HepG2 reporter gene assay, Evaluation Procedure (2): 2-concentrations assay, myostatin inhibition. The class given is cell-based. The conditions noted are these: Myostatin 10 ng/mL, HepG2; for inhibition at 0.03 µM: peptide 30nM, read-out: Myostatin Inhibition 30nM; for inhibition at 0.1 µM: peptide 100nM, read-out: Myostatin Inhibition 100nM. How it is done: (§1) The pGL3(CAGA)12-luc plasmid, namely a pGL3 vector (E1751, Promega) having a luciferase gene inserted downstream of a promoter sequence with 12 CAGA repeats attached, was transfected into HepG2 cell line (HB-8065, ATCC). The culture of HepG2 cell line (HB-8065, ATCC) was performed as in the Evaluation Procedure (1).
(§2) Myostatin (788-G8/CF, R&D systems) or GDF-11 (1958-GD-G8/CF, R&D systems) was added at a final concentration of 10 ng/mL. […] At this time, blank wells, in which neither myostatin, GDF-11, nor each peptide was added, were also prepared and incubated in a CO2 incubator (37°C, 5% CO2) for 20 to 24 hours.
(§3) The medium containing the cells was removed, and a mixture containing PBS (14190144, Thermo) and a chromogenic substrate One-Glo Luciferase Assay System (E6120, Promega) at a ratio of 1:1 was added to each well at 100 µL/well. This was stirred with a plate shaker for 5 min and transferred to a 384-well plate (3570, Corning) at a volume of 20 µL/well.
(§4) The plate was centrifuged at 1,000 × g for 1 min and the luminescence signal (700 nm luminescence) was measured using a plate reader (Envision 2104, PerkinElmer). Based on the measurement results, the inhibition rate at each peptide concentration was calculated. […]

Assay [2] deals with T2, GDF-11 (Homo sapiens, UniProt O95390).
T2 construct: purchased R&D systems 1958-GD-G8/CF
T2 sequence (O95390 299-407): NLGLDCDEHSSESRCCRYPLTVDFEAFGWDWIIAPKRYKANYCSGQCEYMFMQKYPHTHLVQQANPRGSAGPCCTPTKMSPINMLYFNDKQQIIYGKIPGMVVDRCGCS
The experiment in a line: HepG2 reporter gene assay, Evaluation Procedure (2): 2-concentrations assay, GDF-11 inhibition. It is filed as cell-based. Conditions: GDF-11 10 ng/mL; for inhibition at 0.03 µM: HepG2, peptide 30nM, read-out: GDF11 Inhibition 30nM; for inhibition at 0.1 µM: HepG2, peptide 100nM, read-out: GDF11 Inhibition 100nM. As to the method: as §1, §2, §3, §4
(Reporter assays use an easily measured gene product as a stand-in for the process of interest.)

Positions of bridges follow the written chain, without caps; N, C: chain ends. Non-standard residues stand in square brackets, D forms with d. Residues, ends and D or L forms follow the SMILES beside them. Phe(4-COOH) = N[C@@H](Cc1ccc(C(=O)O)cc1)C(=O)O; Trp(7-aza) = N[C@@H](Cc1c[nH]c2ncccc12)C(=O)O; 3Pal(6-NH2) = Nc1ccc(C[C@H](N)C(=O)O)cn1; Gly(N(CH2)3COOH) = O=C(O)CCCNCC(=O)O; NMeF = CN[C@@H](Cc1ccccc1)C(=O)O; 3Pal = N[C@@H](Cc1cccnc1)C(=O)O; 4Pal = N[C@@H](Cc1ccncc1)C(=O)O; NMeA = CN[C@@H](C)C(=O)O; Sar = CNCC(=O)O

`CC[C@H](C)[C@@H]1NC(=O)[C@H](Cc2ccccc2)N(C)C(=O)[C@H](Cc2ccc(O)cc2)NC(=O)[C@H](Cc2c[nH]c3ccccc23)NC(=O)[C@H](C)NC(=O)CN(CCCC(=O)O)C(=O)CSC[C@H](C(N)=O)NC(=O)[C@H](Cc2ccccc2)N(C)C(=O)[C@H](C)N(C)C(=O)[C@H](CC(C)C)NC(=O)[C@H](Cc2ccccc2)N(C)C(=O)[C@H](CCCNC(=N)N)NC(=O)[C@H](Cc2ccc(C(=O)O)cc2)NC(=O)[C@H](Cc2ccc(O)cc2)NC(=O)[C@H](C)N(C)C1=O` [Myostatin_99_Variant_15] ({CH2CO}-[Gly(N(CH2)3COOH)]AWY[NMeF]I[NMeA]Y[Phe(4-COOH)]R[NMeF]L[NMeA][NMeF][dC]-NH2; thioether N-15): in assay [1], the inhibition (usually how much of the control response was suppressed) at 0.03 µM was determined as 54% and the inhibition at 0.1 µM was 84%. In assay [2], the inhibition at 0.03 µM turned out to be 0% and the inhibition at 0.1 µM was 0%.
Take `CC[C@H](C)[C@@H]1NC(=O)[C@H](Cc2ccccc2)N(C)C(=O)[C@H](Cc2ccc(O)cc2)NC(=O)[C@H](Cc2c[nH]c3ccccc23)NC(=O)[C@H](C)NC(=O)CN(CCCC(=O)O)C(=O)CSC[C@H](C(N)=O)NC(=O)[C@H](Cc2ccccc2)N(C)C(=O)[C@H](C)N(C)C(=O)[C@H](CC(C)C)NC(=O)[C@H](Cc2ccccc2)N(C)C(=O)[C@H](CCCNC(=N)N)NC(=O)[C@H](Cc2cccnc2)NC(=O)[C@H](Cc2ccc(O)cc2)NC(=O)CN(C)C1=O` [Myostatin_99_Variant_16] ({CH2CO}-[Gly(N(CH2)3COOH)]AWY[NMeF]I[Sar]Y[3Pal]R[NMeF]L[NMeA][NMeF][dC]-NH2; thioether N-15): in assay [1], the inhibition at 0.03 µM came out at 34% and the inhibition at 0.1 µM was 75%. Further, in assay [2], the inhibition at 0.03 µM turned out to be 0% and the inhibition at 0.1 µM stood at 4%.
In the same order, the values of `CC[C@H](C)[C@@H]1NC(=O)[C@H](Cc2ccccc2)N(C)C(=O)[C@H](Cc2ccc(O)cc2)NC(=O)[C@H](Cc2c[nH]c3ccccc23)NC(=O)[C@H](C)NC(=O)CN(CCCC(=O)O)C(=O)CSC[C@H](C(N)=O)NC(=O)[C@H](Cc2ccccc2)N(C)C(=O)[C@H](C)N(C)C(=O)[C@H](CC(C)C)NC(=O)[C@H](Cc2ccccc2)N(C)C(=O)[C@H](CCCNC(=N)N)NC(=O)[C@H](Cc2ccncc2)NC(=O)[C@H](Cc2ccc(O)cc2)NC(=O)CN(C)C1=O` [Myostatin_99_Variant_17] ({CH2CO}-[Gly(N(CH2)3COOH)]AWY[NMeF]I[Sar]Y[4Pal]R[NMeF]L[NMeA][NMeF][dC]-NH2; thioether N-15) are 37%, 72%, 0% and 14%.
In the same order, the values of `CC[C@H](C)[C@@H]1NC(=O)[C@H](Cc2ccccc2)N(C)C(=O)[C@H](Cc2ccc(O)cc2)NC(=O)[C@H](Cc2c[nH]c3ccccc23)NC(=O)[C@H](C)NC(=O)CN(CCCC(=O)O)C(=O)CSC[C@H](C(N)=O)NC(=O)[C@H](Cc2ccccc2)N(C)C(=O)[C@H](C)N(C)C(=O)[C@H](CC(C)C)NC(=O)[C@H](Cc2ccccc2)N(C)C(=O)[C@H](CCCNC(=N)N)NC(=O)[C@H](Cc2ccc(C(=O)O)cc2)NC(=O)[C@H](Cc2ccncc2)NC(=O)CN(C)C1=O` [Myostatin_99_Variant_18] ({CH2CO}-[Gly(N(CH2)3COOH)]AWY[NMeF]I[Sar][4Pal][Phe(4-COOH)]R[NMeF]L[NMeA][NMeF][dC]-NH2; thioether N-15) are 56%, 80%, 0% and 0%.
Consider `CC[C@H](C)[C@@H]1NC(=O)[C@H](Cc2ccccc2)N(C)C(=O)[C@H](Cc2ccc(O)cc2)NC(=O)[C@H](Cc2c[nH]c3ncccc23)NC(=O)[C@H](C)NC(=O)CN(CCCC(=O)O)C(=O)CSC[C@H](C(N)=O)NC(=O)[C@H](Cc2ccccc2)N(C)C(=O)[C@H](C)N(C)C(=O)[C@H](CC(C)C)NC(=O)[C@H](Cc2ccccc2)N(C)C(=O)[C@H](CCCNC(=N)N)NC(=O)[C@H](Cc2ccc(C(=O)O)cc2)NC(=O)[C@H](Cc2ccccc2)NC(=O)CN(C)C1=O` [Myostatin_99_Variant_20] ({CH2CO}-[Gly(N(CH2)3COOH)]A[Trp(7-aza)]Y[NMeF]I[Sar]F[Phe(4-COOH)]R[NMeF]L[NMeA][NMeF][dC]-NH2; thioether N-15), for which the inhibition at 0.03 µM is 62% in assay [1] and 0% in assay [2]. Also, the inhibition at 0.1 µM in assay [1] stood at 89%; in assay [2] it was 0%.
As to `CC[C@H](C)[C@@H]1NC(=O)[C@H](Cc2ccccc2)N(C)C(=O)[C@H](Cc2ccc(O)cc2)NC(=O)[C@H](Cc2c[nH]c3ncccc23)NC(=O)[C@H](C)NC(=O)CN(CCCC(=O)O)C(=O)CSC[C@H](C(N)=O)NC(=O)[C@H](Cc2ccccc2)N(C)C(=O)[C@H](C)N(C)C(=O)[C@H](CC(C)C)NC(=O)[C@H](Cc2ccccc2)N(C)C(=O)[C@H](CCCNC(=N)N)NC(=O)[C@H](Cc2ccc(C(=O)O)cc2)NC(=O)[C@H](Cc2ccncc2)NC(=O)CN(C)C1=O` [Myostatin_99_Variant_21] ({CH2CO}-[Gly(N(CH2)3COOH)]A[Trp(7-aza)]Y[NMeF]I[Sar][4Pal][Phe(4-COOH)]R[NMeF]L[NMeA][NMeF][dC]-NH2; thioether N-15), in assay [1], the inhibition at 0.03 µM is 40% and the inhibition at 0.1 µM stood at 76%. In assay [2], the inhibition at 0.03 µM worked out at 0% and the inhibition at 0.1 µM is 0%.
Take `CC[C@H](C)[C@@H]1NC(=O)[C@H](Cc2ccccc2)N(C)C(=O)[C@H](Cc2ccc(O)cc2)NC(=O)[C@H](Cc2c[nH]c3ncccc23)NC(=O)[C@H](C)NC(=O)CN(CCCC(=O)O)C(=O)CSC[C@H](C(N)=O)NC(=O)[C@H](Cc2ccccc2)N(C)C(=O)[C@H](C)N(C)C(=O)[C@H](CC(C)C)NC(=O)[C@H](Cc2ccccc2)N(C)C(=O)[C@H](CCCNC(=N)N)NC(=O)[C@H](Cc2cccnc2)NC(=O)[C@H](Cc2ccccc2)NC(=O)CN(C)C1=O` [Myostatin_99_Variant_22] ({CH2CO}-[Gly(N(CH2)3COOH)]A[Trp(7-aza)]Y[NMeF]I[Sar]F[3Pal]R[NMeF]L[NMeA][NMeF][dC]-NH2; thioether N-15): in assay [1], the inhibition at 0.03 µM is 45% and the inhibition at 0.1 µM was 72%. Besides, in assay [2], the inhibition at 0.03 µM came out at 0% and the inhibition at 0.1 µM was 0%.
Take `CC[C@H](C)[C@@H]1NC(=O)[C@H](Cc2ccccc2)N(C)C(=O)[C@H](Cc2ccc(O)cc2)NC(=O)[C@H](Cc2c[nH]c3ccccc23)NC(=O)[C@H](C)NC(=O)CN(CCCC(=O)O)C(=O)CSC[C@H](C(N)=O)NC(=O)[C@H](Cc2ccccc2)N(C)C(=O)[C@H](C)N(C)C(=O)[C@H](CC(C)C)NC(=O)[C@H](Cc2ccccc2)N(C)C(=O)[C@H](CCCNC(=N)N)NC(=O)[C@H](Cc2cccnc2)NC(=O)[C@H](Cc2ccncc2)NC(=O)CN(C)C1=O` [Myostatin_99_Variant_23] ({CH2CO}-[Gly(N(CH2)3COOH)]AWY[NMeF]I[Sar][4Pal][3Pal]R[NMeF]L[NMeA][NMeF][dC]-NH2; thioether N-15): in assay [1], the inhibition at 0.03 µM was 32% and the inhibition at 0.1 µM worked out at 71%. In assay [2], the inhibition at 0.03 µM was 0% and the inhibition at 0.1 µM came out at 0%.
Regarding `CC[C@H](C)[C@@H]1NC(=O)[C@H](Cc2ccccc2)N(C)C(=O)[C@H](Cc2ccc(N)nc2)NC(=O)[C@H](Cc2c[nH]c3ncccc23)NC(=O)[C@H](C)NC(=O)CN(CCCC(=O)O)C(=O)CSC[C@H](C(N)=O)NC(=O)[C@H](Cc2ccccc2)N(C)C(=O)[C@H](C)N(C)C(=O)[C@H](CC(C)C)NC(=O)[C@H](Cc2ccccc2)N(C)C(=O)[C@H](CCCNC(=N)N)NC(=O)[C@H](Cc2ccc(C(=O)O)cc2)NC(=O)[C@H](Cc2ccccc2)NC(=O)CN(C)C1=O` [Myostatin_99_Variant_24] ({CH2CO}-[Gly(N(CH2)3COOH)]A[Trp(7-aza)][3Pal(6-NH2)][NMeF]I[Sar]F[Phe(4-COOH)]R[NMeF]L[NMeA][NMeF][dC]-NH2; thioether N-15), the values for the inhibition at 0.03 µM in assay [1] and in assay [2] were 1% and 0%, respectively. Further, the inhibition at 0.1 µM was determined as 54% in assay [1] and 0% in assay [2].
